The target in assay [1] is T1, rat pituitary cells (Rattus norvegicus, UniProt P30969).
T1 construct: endogenous in cells; host or cells: rat pituitary cells
T1 sequence (P30969 1-327): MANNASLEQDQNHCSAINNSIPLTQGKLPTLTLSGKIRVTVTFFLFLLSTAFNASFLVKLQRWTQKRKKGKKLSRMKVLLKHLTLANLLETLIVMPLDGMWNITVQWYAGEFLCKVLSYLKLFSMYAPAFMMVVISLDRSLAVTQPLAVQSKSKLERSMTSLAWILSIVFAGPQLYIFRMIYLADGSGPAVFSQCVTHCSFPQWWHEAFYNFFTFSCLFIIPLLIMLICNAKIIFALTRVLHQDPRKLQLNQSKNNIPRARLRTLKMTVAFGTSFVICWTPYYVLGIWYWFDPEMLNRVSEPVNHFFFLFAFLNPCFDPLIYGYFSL
Nature of the assay: LH inhibition from rat pituitary cells, antagonist potency (pA2). In kind it is cell-based. The following applies: negative log of antagonist concentration shifting the leuprolide response curve to two-fold higher concentration, Table 2. As to the method: (§1) Representative compounds of the present invention were evaluated in in vitro tests for LHRH rat pituitary receptor binding (pKI) and for LH inhibition from rat pituitary cells for antagonist potency (pA2). The tests employed the methods detailed in F. Haviv, et al. J. Med. Chem., 32: 2340-2344 (1989). The receptor binding affinity (pKI) is the negative logarithm of the equilibrium dissociation constants.
The pA2 value is the negative logarithm of the concentration of antagonist which shifts the response curve produced by the agonist leuprolide to two-fold higher concentration. Leuprolide is the LHRH agonist having the structure pyro-Glu^1 -His^2 -Trp^3 -Ser^4 -Tyr^5 -D-Leu^6 -Leu^7 -Arg^8 -Pro^9 -NHEt and is disclosed and claimed in U.S. Pat. No. 4,005,063. Typically pA2 values of 7.0 or greater are indicative of good LHRH antagonist potency.

Assay [2] concerns the target T2, LHRH rat pituitary receptor (Rattus norvegicus, UniProt P30969).
T2 construct: from tissue; host or cells: rat pituitary
T2 sequence (P30969 1-327): T1 sequence (P30969 1-327)
Nature of the assay: LHRH rat pituitary receptor binding (pKI). The following applies: negative logarithm of the equilibrium dissociation constants, Table 1, read-out: receptor binding affinity (pKI) (converted). As to the method:
as §1

The structures appear in SMILES notation.

Consider 7 compounds from patent US5955440A, “Macrolide LHRH antagonists” (Abbott Laboratories, priority 1998, dated 1999).

The term Kb denotes the affinity of an antagonist, worked out from how it opposes an agonist. As to `CC[C@H]1OC(=O)[C@H](C)[C@@H](O[C@H]2C[C@@](C)(OC)[C@@H](O)[C@H](C)O2)[C@H](C)[C@@H](O[C@@H]2O[C@H](C)C[C@H](N(C)C3CCC3)[C@H]2O)[C@](C)(OC)C[C@@H](C)C(=O)[C@H](C)[C@H]2N(CCc3ccc(F)c(Cl)c3)C(=O)O[C@]12C` [Example 27, 3'-N-Desmethyl-3'-N-cyclobutyl-11-deoxy-11-[carboxy-(3-chloro-4-fluorophenethylamino)]-6-O-methyl-erythromycin A 11,12-(cyclic carbamate)], in assay [1], the Kb was 3.8 nM. For the same compound, the Ki in assay [2] is 1.55 nM.

For the compound `CC[C@H]1OC(=O)[C@H](C)[C@@H](O[C@H]2C[C@@](C)(OC)[C@@H](O)[C@H](C)O2)[C@H](C)[C@@H](O[C@@H]2O[C@H](C)C[C@H](N(C)C(C)C)[C@H]2O)[C@](C)(OC)C[C@@H](C)C(=O)[C@H](C)[C@H]2N(CCc3ccc(F)c(Cl)c3)C(=O)O[C@]12C` [Example 28, 3'-N-Desmethyl-3'-N-isopropyl-11-deoxy-11-[carboxy-(3-chloro-4-fluorophenethylamino)]-6-O-methyl-erythromycin A 11,12-(cyclic carbamate)], the Kb in assay [1] is 3.02 nM. The Ki in assay [2] is 0.324 nM.

As for `CC[C@H]1OC(=O)[C@H](C)[C@@H](O[C@H]2C[C@@](C)(OC)[C@@H](O)[C@H](C)O2)[C@H](C)[C@@H](O[C@@H]2O[C@H](C)C[C@H](N(C)CC3CC3)[C@H]2O)[C@](C)(OC)C[C@@H](C)C(=O)[C@H](C)[C@H]2N(CCc3ccc(F)c(Cl)c3)C(=O)O[C@]12C` [Example 29, 3'-N-Desmethyl-3'-N-cyclopropylmethyl-11-deoxy-11-(3-chloro-4-fluorophenethylamino)-6-O-methyl-erythromycin A 11,12-(cyclic carbamate)], the Kb in assay [1] was 1.07 nM. Also, the Ki in assay [2] is 0.537 nM.

For the compound `CC[C@H]1OC(=O)[C@H](C)[C@@H](O[C@H]2C[C@@](C)(OC)[C@@H](O)[C@H](C)O2)[C@H](C)[C@@H](O[C@@H]2O[C@H](C)C[C@H](N(C)C3CCC3)[C@H]2O)[C@](C)(OC)C[C@@H](C)C(=O)[C@H](C)[C@H]2N(CCc3ccc(F)c(F)c3)C(=O)O[C@]12C` [Example 30, 3'-N-Desmethyl-3'-N-cyclobutyl-11-deoxy-11-[carboxy-(3,4-difluorophenethylamino)]-6-O-methyl-erythromycin A 11,12-(cyclic carbamate)], in assay [1], the Kb is 5.25 nM. For the same compound, the Ki in assay [2] was 0.513 nM.

As for `CC[C@H]1OC(=O)[C@H](C)[C@@H](O[C@H]2C[C@@](C)(OC)[C@@H](O)[C@H](C)O2)[C@H](C)[C@@H](O[C@@H]2O[C@H](C)C[C@H](N(C)C3CCCC3)[C@H]2O)[C@](C)(OC)C[C@@H](C)C(=O)[C@H](C)[C@H]2N(CCc3ccc(F)c(F)c3)C(=O)O[C@]12C` [Example 31, 3'-N-Desmethyl-3'-N-cyclopentyl-11-deoxy-11-[carboxy-(3,4-difluorophenethylamino)]-6-O-methyl-erythromycin A 11,12-(cyclic carbamate)], the Kb in assay [1] was 5.75 nM. For the same compound, the Ki in assay [2] was 0.269 nM.

For `CCCN(C)[C@H]1C[C@@H](C)O[C@@H](O[C@@H]2[C@@H](C)[C@H](O[C@H]3C[C@@](C)(OC)[C@@H](O)[C@H](C)O3)[C@@H](C)C(=O)O[C@H](CC)[C@@]3(C)OC(=O)N(CCc4ccc(F)c(F)c4)[C@@H]3[C@@H](C)C(=O)[C@H](C)C[C@@]2(C)OC)[C@@H]1O` [Example 32, 3'-N-Desmethyl-3'-N-n-propyl-11-deoxy-11-[carboxy-(3,4-difluorophenethylamino)]-6-O-methyl-erythromycin A 11,12-(cyclic carbamate)], in assay [1], the Kb was 26.3 nM. In addition, the Ki in assay [2] is 0.0832 nM.

Consider `CC[C@H]1OC(=O)[C@H](C)[C@@H](O[C@H]2C[C@@](C)(OC)[C@@H](O)[C@H](C)O2)[C@H](C)[C@@H](O[C@@H]2O[C@H](C)C[C@H](N(C)CC3CC3)[C@H]2O)[C@](C)(OC)C[C@@H](C)C(=O)[C@H](C)[C@H]2N(CCc3ccc(F)c(F)c3)C(=O)O[C@]12C` [Example 33, 3'-N-Desmethyl-3'-N-cyclopropylmethyl-11-deoxy-11-[carboxy-(3,4-difluorophenethylamino)]-6-O-methyl-erythromycin A 11,12-(cyclic carbamate)], for which the Kb in assay [1] was 3.98 nM. Moreover, the Ki in assay [2] is 0.676 nM.
